pEC50, pIC50: −log10 of the molar value.
How the values were obtained:
[1] = biological target: T1, TREK-1 (Homo sapiens, UniProt O95069); test: TREK-1 thallium flux assay (hTREK-1/CHO); format: cell-based; parameters: host or cells: CHO; settings: for Emax: % activation relative to 10 µM BL-1249
T1 sequence (O95069 1-426): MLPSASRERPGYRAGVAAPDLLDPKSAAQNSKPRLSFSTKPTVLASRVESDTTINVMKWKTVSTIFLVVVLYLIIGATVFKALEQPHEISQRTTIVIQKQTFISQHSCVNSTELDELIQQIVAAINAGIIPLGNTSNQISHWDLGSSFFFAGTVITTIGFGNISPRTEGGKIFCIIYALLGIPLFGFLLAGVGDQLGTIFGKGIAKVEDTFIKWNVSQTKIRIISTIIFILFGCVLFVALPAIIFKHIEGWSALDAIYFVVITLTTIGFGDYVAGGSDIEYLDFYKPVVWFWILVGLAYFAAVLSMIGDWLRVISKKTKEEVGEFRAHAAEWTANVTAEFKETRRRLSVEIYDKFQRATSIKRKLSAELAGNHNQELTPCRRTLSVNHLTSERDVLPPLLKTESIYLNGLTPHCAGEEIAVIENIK
Description: (§1) Procedures for Biological Experiments
TREK-1 and TREK-2 thallium flux assay protocol
CHO cells stably expressing human TREK-1 (hTREK-1/CHO) were constructed at Evotec. […]
(§2) hTREK-1/CHO or hTREK-2/HEK were plated in 384-well plates at a density of 1.0x10^4 cells/well or 2.0x10^4 cells/well, respectively, and cultured overnight. After the wash by HBSS + 20 mM HEPES buffer, cells were loaded with Thallos dye for 1 hour at room temperature. After the wash […]
(§3) dissolved with HBSS + 20mM HEPES buffer were added to each well. After 10 minutes incubation at room temperature, thallium stimulus buffer were added to each well and the fluorescent intensity are measured by Panoptic. The final thallium concentration was 0.36 mM in […]
(§4) TREK-1 or 0.24 mM in TREK-2, respectively. […]

[2] = biological target: T2, TREK-2 (Homo sapiens, UniProt P57789); test: TREK-2 thallium flux assay (hTREK-2/HEK); format: cell-based; parameters: expressed in transfected cells; host or cells: HEK293; settings: for Emax: % activation relative to 10 µM BL-1249
T2 sequence (P57789 1-538): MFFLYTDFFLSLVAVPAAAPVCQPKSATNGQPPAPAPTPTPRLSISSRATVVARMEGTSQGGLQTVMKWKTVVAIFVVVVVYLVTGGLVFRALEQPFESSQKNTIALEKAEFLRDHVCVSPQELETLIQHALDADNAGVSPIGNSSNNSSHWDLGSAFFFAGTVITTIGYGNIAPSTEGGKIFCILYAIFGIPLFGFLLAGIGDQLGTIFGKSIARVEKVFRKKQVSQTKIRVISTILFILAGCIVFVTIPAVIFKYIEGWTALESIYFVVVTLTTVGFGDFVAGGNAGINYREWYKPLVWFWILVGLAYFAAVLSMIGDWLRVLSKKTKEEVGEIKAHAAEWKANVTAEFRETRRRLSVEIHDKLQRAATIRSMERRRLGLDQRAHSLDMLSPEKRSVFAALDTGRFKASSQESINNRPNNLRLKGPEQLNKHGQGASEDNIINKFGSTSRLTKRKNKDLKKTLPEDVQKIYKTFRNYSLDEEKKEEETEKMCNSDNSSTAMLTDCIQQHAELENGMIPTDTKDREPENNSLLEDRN
Description: as §1
TREK-1 and TREK-2 thallium flux assay protocol […]
as §2, with “HEK293 cells stably expressing human TREK-2 (hTREK-2/HEK) were constructed at Ono. hTREK-1/CHO” for “hTREK-1/CHO”
as §3, §4

[3] = biological target: T3, mouse TREK-1 (Mus musculus, UniProt P97438); test: mouse TREK-1 MPC assay; format: cell-based; settings: manual patch clamp
T3 sequence (P97438 1-426): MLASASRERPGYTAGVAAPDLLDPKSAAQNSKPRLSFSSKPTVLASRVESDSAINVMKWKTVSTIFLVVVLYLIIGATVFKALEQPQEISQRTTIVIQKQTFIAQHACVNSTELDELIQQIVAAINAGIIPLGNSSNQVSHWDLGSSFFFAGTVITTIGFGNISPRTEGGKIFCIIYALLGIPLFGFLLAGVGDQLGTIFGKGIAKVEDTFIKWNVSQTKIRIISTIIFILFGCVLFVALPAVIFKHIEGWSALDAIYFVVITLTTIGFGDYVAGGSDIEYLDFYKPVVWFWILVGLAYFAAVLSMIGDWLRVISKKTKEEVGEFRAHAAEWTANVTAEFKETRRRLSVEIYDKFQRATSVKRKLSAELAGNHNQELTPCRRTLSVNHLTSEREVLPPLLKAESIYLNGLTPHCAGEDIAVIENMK

[4] = biological target: T4, mouse TREK-2 (Mus musculus, UniProt Q8BUW1); test: mouse TREK-2 MPC assay; format: cell-based; settings: mouse, manual patch clamp
T4 sequence (Q8BUW1 1-535): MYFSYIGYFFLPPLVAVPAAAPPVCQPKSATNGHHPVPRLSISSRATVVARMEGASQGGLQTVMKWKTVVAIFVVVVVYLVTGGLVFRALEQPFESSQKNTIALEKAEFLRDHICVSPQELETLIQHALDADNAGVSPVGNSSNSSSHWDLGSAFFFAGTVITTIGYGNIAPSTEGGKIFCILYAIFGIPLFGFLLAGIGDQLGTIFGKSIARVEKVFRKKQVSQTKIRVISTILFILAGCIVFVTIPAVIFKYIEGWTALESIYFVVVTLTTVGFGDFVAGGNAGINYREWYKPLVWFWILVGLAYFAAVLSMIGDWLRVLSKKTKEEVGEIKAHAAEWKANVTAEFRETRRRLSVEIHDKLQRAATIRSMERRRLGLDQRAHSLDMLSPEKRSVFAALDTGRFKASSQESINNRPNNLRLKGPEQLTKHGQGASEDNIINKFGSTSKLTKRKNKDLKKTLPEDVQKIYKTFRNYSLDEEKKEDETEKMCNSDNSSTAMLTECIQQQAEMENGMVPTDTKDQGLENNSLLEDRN

[5] = biological target: T2, TREK-2; test: human 86Rb flux K2P selectivity panel; format: cell-based; settings: data is not shown
[6] = biological target: T1, TREK-1; test: human 86Rb flux K2P selectivity panel; format: cell-based; settings: data is not shown
[7] = system: TASK-1; test: human 86Rb flux K2P selectivity panel; format: cell-based; settings: 86Rb flux K2P panel
[8] = system: TASK-2; test: human 86Rb flux K2P selectivity panel; format: cell-based; settings: 86Rb flux K2P panel
[9] = system: TASK-3; test: human 86Rb flux K2P selectivity panel; format: cell-based; settings: 86Rb flux K2P panel
[10] = system: TRAAK; test: human 86Rb flux K2P selectivity panel; format: cell-based; settings: 86Rb flux K2P panel
[11] = system: TWIK-2; test: human 86Rb flux K2P selectivity panel; format: cell-based; settings: 86Rb flux K2P panel
[12] = biological target: T5, TRESK (Homo sapiens, UniProt Q7Z418); test: human 86Rb flux K2P selectivity panel; format: cell-based; settings: 86Rb flux K2P panel
T5 sequence (Q7Z418 1-384): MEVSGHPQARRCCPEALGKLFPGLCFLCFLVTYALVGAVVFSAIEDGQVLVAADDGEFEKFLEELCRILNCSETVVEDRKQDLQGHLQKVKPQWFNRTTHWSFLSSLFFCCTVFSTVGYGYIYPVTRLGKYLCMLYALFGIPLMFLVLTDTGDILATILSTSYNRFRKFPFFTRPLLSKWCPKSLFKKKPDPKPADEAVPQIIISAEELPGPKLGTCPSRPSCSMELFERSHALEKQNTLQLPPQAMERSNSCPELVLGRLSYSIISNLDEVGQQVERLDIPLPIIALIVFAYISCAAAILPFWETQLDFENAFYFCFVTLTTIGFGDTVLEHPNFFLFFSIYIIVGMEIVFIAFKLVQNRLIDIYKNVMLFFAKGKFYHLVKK

[13] = biological target: T1, TREK-1; parameters: method as in PMID 31072652; settings: previously reported; cited from earlier work
[14] = biological target: T2, TREK-2; parameters: method as in PMID 31072652; settings: previously reported; cited from earlier work
[15] = parameters: method as in PMID 31072652; settings: previously reported; cited from earlier work
[16] = parameters: method as in PMID 31072652; settings: previously reported; cited from earlier work; remark: listed apart in the source
[17] = control compound, table footnote

Row | Compound | pEC50 [1] | Emax [1] [%] | pEC50 [2] | Emax [2] [%] | TREK-1 Emax [13] [%] | TREK-2 Emax [14] [%] | rat CLhep (predicted hepatic clearance) [15] [mL/min/kg] | rat plasma fu [16] | also measured
1 | COc1cc(OC(F)(F)F)ccc1CNC(=O)c1ccc(-n2cncn2)nc1 [Compound 14b] | 5.82 | 42 | 6.39 | 158 |  |  |  |  | Fold TREK-2 ([2]; TREK-2 preference over TREK-1, thallium flux): 3.7 fold
2 | Cc1cc(OC(F)(F)F)ccc1CNC(=O)c1ccc(-n2cncn2)nc1 [Compound 14c] | ~5.96 | 20 | 6.44 | 109 |  |  |  |  | pEC50 [3]: 5.55; Emax [3]: 31%; pEC50 [4]: 6.51; Emax [4]: 72%; activity at TREK-2 in 86Rb flux panel [5]: submicromolar TREK-2 activator; activity at TREK-1 in 86Rb flux panel [6]: partial TREK-1 activator; selectivity against TASK-1 over TREK-2 [7]: > 43 fold; selectivity against TASK-2 over TREK-2 [8]: > 43 fold; selectivity against TASK-3 over TREK-2 [9]: > 43 fold; selectivity against TRAAK over TREK-2 [10]: > 43 fold; selectivity against TWIK-2 over TREK-2 [11]: > 43 fold; selectivity against TRESK over TREK-2 [12]: > 43 fold
3 | O=C(Nc1cc(F)c(Br)cc1C(=O)O)c1ccc(SC(F)(F)F)cc1 [Compound 8] |  |  |  |  | 101 | 84 | 35.5 | 0.041 | 
4 | c1ccc(-c2nnn[nH]2)c(Nc2cccc3c2CCCC3)c1 [BL-1249, (5,6,7,8-tetrahydro-naphthalen-1-yl)-[2-(1H-tetrazol-5-yl)-phenyl]-amine, reference compound] |  |  |  |  | 109 ± 14 | 133 ± 23 | > 50.9 | < 0.001 | pIC50 [1, 17]: 5.28; pIC50 [2, 17]: 5.14

Reference: paper PMC11887051, “Discovery of ONO-2920632 (VU6011887): A Highly Selective and CNS Penetrant TREK-2 (TWIK-Related K+ Channel 2) Preferring Activator In Vivo Tool Compound” (ACS Chemical Neuroscience, 2025)
